From patent US20130217664A1, “NOVEL COMPOUNDS USEFUL FOR THE TREATMENT OF DEGENERATIVE AND INFLAMMATORY DISEASES” (priority 2012, published 2013)

Assays:
human JAK3 = biological target: T1, human JAK3 (Homo sapiens, UniProt P52333); experiment: JAK3 inhibition assay; assay type: biochemical; conditions: recombinant human JAK3 catalytic domain; polyGT substrate
T1 construct: catalytic domain (amino acids 781-1124; catalog number PV3855); purchased Invitrogen PV3855
In short: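 Radiometric kinase assay: 0.5 ng JAK3 with 2.5 μg polyGT in Tris pH 7.5/MgCl2 buffer, 1 μM ATP plus 0.25 μCi 33P-γ-ATP, 1% DMSO, 45 min at 30 °C, stopped with phosphoric acid.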

CTLL-2 cell line = experiment: CTLL2 viability assay; assay type: cell-based; conditions: Mus musculus, IL-2 dependent CTLL2 viability, 24 h, ATP-lite
Excerpt: The protocol describes the methods to analyse the activity of compounds on their ability to sustain the IL2-dependent viability of CTLL2.
Final DMSO concentration was 0.1%.

human JAK1 = biological target: T2, human JAK1 (Homo sapiens, UniProt P23458); experiment: JAK1 inhibition assay (polyGT substrate / Ulight-JAK1 peptide); assay type: biochemical; conditions: recombinant human JAK1 catalytic domain; polyGT or Ulight-JAK1 peptide assay
T2 construct: catalytic domain, amino acids 866-1154; catalog number PV4774; purchased Invitrogen PV4774
T2 sequence (P23458 866-1154): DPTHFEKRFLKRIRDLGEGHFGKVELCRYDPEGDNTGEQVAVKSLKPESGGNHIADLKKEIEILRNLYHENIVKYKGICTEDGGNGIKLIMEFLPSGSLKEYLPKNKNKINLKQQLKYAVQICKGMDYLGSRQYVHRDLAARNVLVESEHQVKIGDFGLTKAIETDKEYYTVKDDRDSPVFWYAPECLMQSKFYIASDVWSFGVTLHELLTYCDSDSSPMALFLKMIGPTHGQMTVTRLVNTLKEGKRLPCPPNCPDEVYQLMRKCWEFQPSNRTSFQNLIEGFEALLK
In short: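 Two formats. PolyGT radiometric: 45 min at 30 °C, stopped with phosphoric acid, counted as cpm. Ulight-JAK1 peptide: 60 min at room temperature, stopped with Eu-anti-phosphotyrosine/EDTA, read as RFU. Percent inhibition normalised to vehicle and 10 μM staurosporine.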

human TYK2 = biological target: T3, human TYK2 (Homo sapiens, UniProt P29597); experiment: TYK2 inhibition assay; assay type: biochemical; conditions: recombinant human TYK2 catalytic domain, polyGT substrate
T3 construct: catalytic domain (amino acids 871-1187; catalog number 08-147); purchased Carna Biosciences 08-147
T3 sequence (P29597 871-1187): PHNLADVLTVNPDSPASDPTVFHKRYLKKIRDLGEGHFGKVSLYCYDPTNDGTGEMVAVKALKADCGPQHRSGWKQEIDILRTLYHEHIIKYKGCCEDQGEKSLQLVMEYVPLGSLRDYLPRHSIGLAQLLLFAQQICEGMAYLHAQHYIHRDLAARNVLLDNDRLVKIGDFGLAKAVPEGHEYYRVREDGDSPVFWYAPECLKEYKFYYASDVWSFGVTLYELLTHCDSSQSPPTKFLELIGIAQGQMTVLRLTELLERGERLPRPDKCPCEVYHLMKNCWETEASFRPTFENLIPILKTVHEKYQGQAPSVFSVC
In short: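 Radiometric kinase reaction run 90 min at 30 °C, stopped with phosphoric acid, washed and scintillation-counted.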

human JAK2 = biological target: T4, human JAK2 (Homo sapiens, UniProt O60674); experiment: JAK2 inhibition assay (polyGT substrate / Ulight-JAK1 peptide); assay type: biochemical; conditions: recombinant human JAK2 catalytic domain; polyGT or Ulight-JAK1 peptide assay
T4 construct: catalytic domain (amino acids 808-1132; catalog number PV4210); GST; purchased Invitrogen PV4210
T4 sequence (O60674 808-1132): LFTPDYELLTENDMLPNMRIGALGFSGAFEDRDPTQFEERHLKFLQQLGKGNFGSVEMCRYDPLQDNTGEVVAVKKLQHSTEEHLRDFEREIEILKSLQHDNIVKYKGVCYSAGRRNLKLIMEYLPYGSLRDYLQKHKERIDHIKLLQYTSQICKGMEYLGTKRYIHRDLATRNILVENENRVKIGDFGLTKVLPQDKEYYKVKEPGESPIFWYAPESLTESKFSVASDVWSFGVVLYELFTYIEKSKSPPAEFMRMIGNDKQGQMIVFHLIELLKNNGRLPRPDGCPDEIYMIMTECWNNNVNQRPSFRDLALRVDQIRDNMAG
In short: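 Radiometric: 0.025 mU JAK2 with 2.5 μg polyGT, 1 μM ATP plus ^33P-ATP in MOPS pH 7.5 buffer, 1% DMSO, 90 min at 30° C.; filter counting. Alternative TR-FRET format with Ulight-JAK1 peptide, 60 min at room temperature, Eu-anti-phosphotyrosine detection.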

BA/F3 cell line = experiment: BA/F3 viability assay; conditions: Mus musculus, BaF3, 48 h, read-out: BA/F3 IC50

T1 sequence (P52333 781-1124): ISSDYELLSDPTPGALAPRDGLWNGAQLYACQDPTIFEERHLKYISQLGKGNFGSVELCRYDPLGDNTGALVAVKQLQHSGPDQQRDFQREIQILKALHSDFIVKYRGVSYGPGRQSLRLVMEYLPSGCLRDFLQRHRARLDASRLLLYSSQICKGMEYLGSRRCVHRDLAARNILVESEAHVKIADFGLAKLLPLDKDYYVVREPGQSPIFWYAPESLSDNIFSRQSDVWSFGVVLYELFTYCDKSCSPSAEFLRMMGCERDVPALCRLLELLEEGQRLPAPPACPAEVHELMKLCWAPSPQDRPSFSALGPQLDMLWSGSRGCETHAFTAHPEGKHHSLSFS

| Structure (SMILES) | IC50 (human JAK3) [nM] | IC50 (human JAK1) [nM] | IC50 (human TYK2) [nM] | IC50 (human JAK2) [nM] | IC50 (BA/F3 cell line) [nM] | IC50 (CTLL-2 cell line) [nM] |
| --- | --- | --- | --- | --- | --- | --- |
| CCc1cc(CNS(=O)(=O)NC)ccc1N(C)c1cc2c(cn1)ncn2C [Compound 376, Methyl amino-N-{3-Ethyl-4-[methyl-(1-methyl-1H-imidazo[4,5-c]pyridin-6-yl)-amino]-benzyl}-sulfonamide] | 101 to 500 | 0.01 to 100 | 101 to 500 | 0.01 to 100 | 1000 to 5000 | > 1000 |
| CN(c1cc2c(cn1)ncn2C)c1ccc(C2CN(C(=O)OC(C)(C)C)C2)cc1OC(F)F [Compound 362, 3-{3-Difluoromethoxy-4-[methyl-(1-methyl-1H-imidazo[4,5-]pyridin-6-yl)-amino]-phenyl}-azetidine-1-carboxylic acid tert-butyl ester] | > 1000 | 501 to 1000 | > 1000 | > 1000 | > 5000 | > 1000 |
| CN(c1cc2c(cn1)ncn2C)c1ccc(CN(C)S(C)(=O)=O)cc1F [Compound 358, N-{3-Fluoro-4-[methyl-(1-methyl-1H-imidazo[4,5-c]pyridin-6-yl)-amino]-benzyl}-N-methyl-methanesulfonamide] | 101 to 500 | 0.01 to 100 | 101 to 500 | 0.01 to 100 | > 5000 | > 1000 |
| CCc1cc(C(CC#N)NS(C)(=O)=O)ccc1N(C)c1cc2c(cn1)ncn2C (stereo not drawn) [Compound 387, N-(2-Cyano-1-{3-ethyl-4-[methyl-(1-methyl-1H-imidazo[4,5-c]pyridin-6-yl)-amino]-phenyl}-ethyl)-methanesulfonamide] | 101 to 500 | 0.01 to 100 | 101 to 500 | 101 to 500 | > 5000 | > 1000 |

Now from value to molecule, other results behind:

| IC50 (human JAK3) [nM] | IC50 (human JAK1) [nM] | IC50 (human TYK2) [nM] | IC50 (human JAK2) [nM] | IC50 (BA/F3 cell line) [nM] | Structure (SMILES) | IC50 (CTLL-2 cell line) [nM] |
| --- | --- | --- | --- | --- | --- | --- |
| 101 to 500 | 0.01 to 100 | 101 to 500 | 0.01 to 100 | 1000 to 5000 | CCc1cc(CNCC(F)(F)F)ccc1N(C)c1cc2c(cn1)ncn2C [Compound 380] | > 1000 |
| 0.01 to 100 | 0.01 to 100 | 0.01 to 100 | 0.01 to 100 | 1000 to 5000 | CCc1cc(C2(C#N)CC2)ccc1N(C)c1cc2c(cn1)ncn2C [Compound 385, 1-{3-Ethyl-4-[methyl-(1-methyl-1H-imidazo[4,5-c]pyridin-6-yl)-amino]-phenyl}-cyclopropanecarbonitrile] | > 1000 |
| 0.01 to 100 | 0.01 to 100 | 0.01 to 100 | 0.01 to 100 | 1000 to 5000 | CCc1cc(CN(CC#N)S(C)(=O)=O)ccc1N(C)c1cc2c(cn1)ncn2C [Compound 388, N-Cyanomethyl-N-{3-ethyl-4-[methyl-(1-methyl-1H-imidazo[4,5-c]pyridin-6-yl)-amino]-benzyl}-methanesulfonamide] | > 1000 |
| 0.01 to 100 | 0.01 to 100 | 0.01 to 100 | 0.01 to 100 | 1000 to 5000 | CCc1cc(CN(CC#N)S(C)(=O)=O)cc(F)c1N(C)c1cc2c(cn1)ncn2C [Compound 357, N-Cyanomethyl-N-{3-ethyl-5-fluoro-4-[methyl-(1-methyl-1H-imidazo[4,5-c]pyridin-6-yl)-amino]-benzyl}-methanesulfonamide] | > 1000 |
| 0.01 to 100 | 0.01 to 100 | 0.01 to 100 | 0.01 to 100 | 1000 to 5000 | CCc1cc(N2CCC(F)(F)C2)ncc1N(C)c1cc2c(cn1)ncn2C [Compound 411, [6-(3,3-Difluoro-pyrrolidin-1-yl)-4-ethyl-pyridin-3-yl]-methyl-(1-methyl-1H-imidazo[4,5-c]pyridin-6-yl)-amine] | > 1000 |
| 0.01 to 100 | 0.01 to 100 | 0.01 to 100 | 0.01 to 100 | 1000 to 5000 | CN(c1cc2c(cn1)ncn2C)c1ccc(CN(C)S(C)(=O)=O)cc1OC(F)F [Compound 430, N-{3-Difluoromethoxy-4-[methyl-(1-methyl-1H-imidazo[4,5-c]pyridin-6-yl)-amino]-benzyl}-N-methyl-methanesulfonamide] | > 1000 |
